The values that follow come from patent US7361687B2, “Arylsulphonamide derivatives and methods of preparing” (Laboratoires Fournier SA, priority 2002, dated 2008).

For data set [1], the system named is formalin-induced pain response in mice. Description: formalin-induced pain response test in mice. In kind it is in vivo. Conditions: formalin 0.92% in hind paw, licking time 15 to 30 min after injection. The protocol:
The compounds of the present invention were evaluated for their analgesic properties in the formalin-induced pain response test in mice (Shibata, M., Ohkubo, T., Takahashi, H. & R. Inoki. Modified formalin test: characteristic biphasic pain response. Pain, 38, 347-352). To summarize, formalin (0.92% in saline solution) is injected into the hind paw and the paw licking time, which reflects pain intensity, is recorded from 0 to 5 min (1st phase) and from 15 to 30 min (2nd phase) after injection.

In the case of `CN(Cc1ccc(C2=NCCN2)cc1)C(=O)COCCN(C)S(=O)(=O)c1ccc(Cl)c(Cl)c1Cl.O=C(O)C(F)(F)F`, the melting point (as a rule, the temperature, or range, at which the solid turns liquid) turned out to be 70 °C.
Regarding `Cc1c(Cl)ccc(S(=O)(=O)N(CCCCC(=O)N(C)Cc2ccc(C3=NCCN3)cc2)CCC(N)=O)c1Cl.O=C(O)C(F)(F)F`, the melting point was determined as 85 °C.
In the case of `CN(Cc1ccc(C2=NCCN2)cc1)C(=O)CCN(CC(F)(F)F)S(=O)(=O)c1c(Cl)cccc1Cl.O=C(O)C(F)(F)F`, the melting point was 80 °C.
On the same count and under the same terms, next, `CN(Cc1ccc(C2=NCCN2)cc1)C(=O)COCCN(C1CC1)S(=O)(=O)c1cccc(Cl)c1Cl.O=C(O)C(F)(F)F`: 65 °C; `CN(Cc1ccc(C2=NCCN2)cc1)C(=O)COCCN(C1CC1)S(=O)(=O)c1ccccc1Cl.O=C(O)C(F)(F)F`: 52 °C.
Take `CN(Cc1ccc(C2=NCCN2)cc1)C(=O)COCCN(C)S(=O)(=O)c1ccccc1C(F)(F)F.O=C(O)C(F)(F)F`: the melting point is 60 °C.
On the same count and under the same terms, next, `CN(Cc1ccc(C2=NCCN2)cc1)C(=O)COCCN(C)S(=O)(=O)c1cccc2ccccc12.O=C(O)C(F)(F)F`: 66 °C; `CN(Cc1ccc(C2=NCCN2)cc1)C(=O)/C=C/CN(C)S(=O)(=O)c1cccc2ccccc12.O=C(O)C(F)(F)F`: 77 °C.
Compound `Cc1c(Cl)ccc(S(=O)(=O)N(CCCCC(=O)N(C)Cc2ccc(C3=NCCN3)cc2)CC(N)=O)c1Cl.O=C(O)C(F)(F)F` [Example 19, 5-[(2-amino-2-oxoethyl)[(2,4-dichloro-3-methylphenyl)sulphonyl]-amino]-N-[[4-(4,5-dihydro-1H-imidazol-2-yl)phenyl]methyl]-N-methyl-pentanamide, trifluoroacetate] came in with a melting point of 90 °C. Besides, the “% inhibition of the 2nd paw licking phase” value (from here on “% inhibition”) in data set [1] (dose 10 mg/kg i.p.) worked out at 42%.
Consider `CN(Cc1ccc(C2=NCCN2)cc1)C(=O)CCN(C1CC1)S(=O)(=O)c1cccc(Cl)c1Cl.O=C(O)C(F)(F)F`, for which the melting point is 80 °C.
Same read-out and setting: next, `Cc1c(Cl)ccc(S(=O)(=O)NC/C=C/C(=O)N(C)Cc2ccc(C3=NCCN3)cc2)c1Cl.O=C(O)C(F)(F)F`: 99 °C; `CN(Cc1ccc(C2=NCCN2)cc1)C(=O)COCCN(C)S(=O)(=O)c1c(Cl)cc(C(F)(F)F)cc1Cl.O=C(O)C(F)(F)F`: 60 °C; `CN(Cc1ccc(C2=NCCN2)cc1)C(=O)CCCCN(C1CC1)S(=O)(=O)c1ccccc1Cl.O=C(O)C(F)(F)F`: 55 °C.
“N-[[4-(4,5-dihydro-1H-imidazol-2-yl)phenyl]methyl]-2-[2-[[(4-methoxy-2,6-dimethylphenyl)sulphonyl]methylamino]ethoxy]-N-methyl-acetamide, trifluoroacetate [Example 49]”: in data set [1] (dose 1 mg/kg i.v.), the “% inhibition” value is recorded as 40%.
`CC(C)N(CCC(=O)N(C)Cc1ccc(C2=NCCN2)cc1)S(=O)(=O)c1cccc(Cl)c1Cl.O=C(O)C(F)(F)F` displayed a melting point of 92 °C.
On to `CN(Cc1ccc(C2=NCCN2)cc1)C(=O)COCCN(C)S(=O)(=O)c1cccc(C(F)(F)F)c1.O=C(O)C(F)(F)F`, for which the melting point amounted to 60 °C.
`CN(Cc1ccc(C2=NCCN2)cc1)C(=O)CCN(CC(F)(F)F)S(=O)(=O)c1cccc(Cl)c1Cl.O=C(O)C(F)(F)F` showed a melting point of 88 °C.
Take `CN(Cc1ccc(C2=NCCN2)cc1)C(=O)CCN(C1CC1)S(=O)(=O)c1c(Cl)cccc1Cl.O=C(O)C(F)(F)F`: the melting point was 65 °C.
Still for that read-out and setting: next, `CN(Cc1ccc(C2=NCCN2)cc1)C(=O)/C=C/CN(C)S(=O)(=O)c1ccc(OC(F)(F)F)cc1Cl.O=C(O)C(F)(F)F`: 68 °C; `CN(Cc1ccc(C2=NCCN2)cc1)C(=O)COCCN(C1CC1)S(=O)(=O)c1c(Cl)cccc1Cl.O=C(O)C(F)(F)F`: 60 °C; `CC(C)N(CCCCC(=O)N(C)Cc1ccc(C2=NCCN2)cc1)S(=O)(=O)c1c(Cl)cccc1Cl.O=C(O)C(F)(F)F`: 60 °C.
The compound `Cc1c(Cl)ccc(S(=O)(=O)N(CCOCC(=O)N(C)Cc2ccc(C3=NCCN3)cc2)CCc2ccccc2)c1Cl.O=C(O)C(F)(F)F` had a melting point of 85 °C.
In turn, `CN(Cc1ccc(C2=NCCN2)cc1)C(=O)/C=C/CN(C)S(=O)(=O)c1ccccc1C(F)(F)F.O=C(O)C(F)(F)F` registered a melting point of 50 °C.
The compound `CC(C)N(CCC(=O)N(C)Cc1ccc(C2=NCCN2)cc1)S(=O)(=O)c1c(Cl)cccc1Cl.O=C(O)C(F)(F)F` gave a melting point of 75 °C.
Consider “5-[[(2,3-dichlorophenyl)sulphonyl]methylamino]-N-[[4-(4,5-dihydro-1H-imidazol-2-yl)phenyl]methyl]-N-methyl-pentanamide, trifluoroacetate [Example 9]”, for which the “% inhibition” value in data set [1] (dose 100 mg/kg p.o.) amounted to 60%.
`CN(Cc1ccc(C2=NCCN2)cc1)C(=O)CCCCN(C1CC1)S(=O)(=O)c1cccc(Cl)c1Cl.O=C(O)C(F)(F)F` [Example 16, 5-[cyclopropyl[(2,3-dichlorophenyl)sulphonyl]amino]-N-[[4-(4,5-dihydro-1H-imidazol-2-yl)phenyl]methyl]-N-methyl-pentanamide, trifluoroacetate]: the melting point was 70 °C. For the same compound, in data set [1] (dose 100 mg/kg p.o.), the “% inhibition” value is 80%.
